According to patent publication US8802597B2, “Herbicidal pyrimidines” (E I du Pont de Nemours and Company, priority 2003, dated 2014):

Columns and labels:
Test in all cases: Test C pre/postemergence
Type in all cases: in vivo
Details in all cases: Postemergence
[1] = tested on: woolly cupgrass (Eriochloa villosa)
Summary of the method: (§1)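 Injury scored visually 12–14 days after application on 0–100 scale (100 = complete control), relative to controls. Compounds, formulated with surfactant in non-phytotoxic solvent, applied to soil at planting (pre) or to 1- to 4-leaf plants 2–18 cm tall (post) in greenhouse.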

[2] = tested on: cocklebur (Xanthium strumarium)
Summary of the method: as §1

[3] = tested on: morningglory (Ipomoea coccinea)
Summary of the method: as §1

[4] = tested on: pigweed (Amaranthus retroflexus)
Summary of the method: as §1

[5] = tested on: Surinam grass (Brachiaria decumbens)
Summary of the method: as §1

[6] = tested on: crabgrass (Digitaria sanguinalis)
Summary of the method: as §1

[7] = tested on: yellow nutsedge (Cyperus esculentus)
Summary of the method: as §1

[8] = tested on: giant foxtail (Setaria faberii)
Summary of the method: as §1

kochia (Kochia scoparia) = tested on: kochia (Kochia scoparia)
Summary of the method: as §1

[9] = tested on: velvetleaf (Abutilon theophrasti)
Summary of the method: as §1

[10] = tested on: johnsongrass (Sorghum halepense)
Summary of the method: as §1

[11] = 125 g ai/ha, scale 0 to 100 (0 no effect, 100 complete control)

Q: Which results are given for `COC(=O)c1nc(-c2ccc(Cl)cc2)nc(N)c1Br` [Compound 83]?
A: Plant response rating (scale of 0 to 100), Cupgrass, Woolly ([1]; 16 g ai/ha): 15; Plant response rating (scale of 0 to 100), Cupgrass, Woolly ([1]; 31 g ai/ha): 15; Plant response rating (scale of 0 to 100), Cupgrass, Woolly ([1]; 62 g ai/ha): 45; Cupgrass, Woolly plant response rating [1, 11]: 60; Plant response rating (scale of 0 to 100), Cocklebur ([2]; 16 g ai/ha): 60; Plant response rating (scale of 0 to 100), Cocklebur ([2]; 31 g ai/ha): 70; Plant response rating (scale of 0 to 100), Cocklebur ([2]; 62 g ai/ha): 70; Cocklebur plant response rating [2, 11]: 100; Plant response rating (scale of 0 to 100), Morningglory ([3]; 16 g ai/ha): 70; Plant response rating (scale of 0 to 100), Morningglory ([3]; 31 g ai/ha): 85; Plant response rating (scale of 0 to 100), Morningglory ([3]; 62 g ai/ha): 90; Morningglory plant response rating [3, 11]: 90; Plant response rating (scale of 0 to 100), Pigweed ([4]; 16 g ai/ha): 95; Plant response rating (scale of 0 to 100), Pigweed ([4]; 31 g ai/ha): 95; Plant response rating (scale of 0 to 100), Pigweed ([4]; 62 g ai/ha): 100; Pigweed plant response rating [4, 11]: 100; Plant response rating (scale of 0 to 100), Surinam Grass ([5]; 16 g ai/ha): 20; Plant response rating (scale of 0 to 100), Surinam Grass ([5]; 31 g ai/ha): 30; Plant response rating (scale of 0 to 100), Surinam Grass ([5]; 62 g ai/ha): 45; Surinam Grass plant response rating [5, 11]: 65; Plant response rating (scale of 0 to 100), Crabgrass ([6]; 16 g ai/ha): 25; Plant response rating (scale of 0 to 100), Crabgrass ([6]; 31 g ai/ha): 45; Plant response rating (scale of 0 to 100), Crabgrass ([6]; 62 g ai/ha): 65; Crabgrass plant response rating [6, 11]: 75; Plant response rating (scale of 0 to 100), Nutsedge, Yellow ([7]; 16 g ai/ha): 60; Plant response rating (scale of 0 to 100), Nutsedge, Yellow ([7]; 31 g ai/ha): 60; Plant response rating (scale of 0 to 100), Nutsedge, Yellow ([7]; 62 g ai/ha): 60; Nutsedge, Yellow plant response rating [7, 11]: 75; Plant response rating (scale of 0 to 100), Foxtail, Giant ([8]; 16 g ai/ha): 0; Plant response rating (scale of 0 to 100), Foxtail, Giant ([8]; 31 g ai/ha): 0; Plant response rating (scale of 0 to 100), Foxtail, Giant ([8]; 62 g ai/ha): 20; Foxtail, Giant plant response rating [8, 11]: 40; Plant response rating (scale of 0 to 100), Kochia (kochia (Kochia scoparia); 16 g ai/ha): 65; Plant response rating (scale of 0 to 100), Kochia (kochia (Kochia scoparia); 31 g ai/ha): 75; Plant response rating (scale of 0 to 100), Kochia (kochia (Kochia scoparia); 62 g ai/ha): 75; Kochia plant response rating (kochia (Kochia scoparia); [11]): 90; Plant response rating (scale of 0 to 100), Velvetleaf ([9]; 16 g ai/ha): 70; Plant response rating (scale of 0 to 100), Velvetleaf ([9]; 31 g ai/ha): 85; Plant response rating (scale of 0 to 100), Velvetleaf ([9]; 62 g ai/ha): 85; Velvetleaf plant response rating [9, 11]: 100; Plant response rating (scale of 0 to 100), Johnsongrass ([10]; 16 g ai/ha): 10; Plant response rating (scale of 0 to 100), Johnsongrass ([10]; 31 g ai/ha): 55; Plant response rating (scale of 0 to 100), Johnsongrass ([10]; 62 g ai/ha): 55; Johnsongrass plant response rating [10, 11]: 70
